Results as given in the NIST ThermoML archive (doi:10.1021/acs.jced.5b00562).

Settings: for specific volume: Gas, isochoric method; for mass density: Liquid, Vibrating tube method

F/C=C(\F)C(F)(F)F [(Z)-1,2,3,3,3-pentafluoro-1-propene]
Settings	mass density [kg/m3]	specific volume [m3/kg]
263.15 K, 135.2 kPa	–	0.115
268.15 K, 138.3 kPa	–	0.115
273.14 K, 141.3 kPa	–	0.116
273.15 K, 202.4 kPa	–	0.079
278.15 K, 144.3 kPa	–	0.116
278.15 K, 207 kPa	–	0.079
282.83 K, 301.1 kPa	–	0.054
283.14 K, 12501 kPa	1378.7	–
283.15 K, 211.5 kPa	–	0.079
283.15 K, 510 kPa	1329.6	–
283.15 K, 604 kPa	1330.1	–
283.15 K, 1003 kPa	1332	–
283.15 K, 1499 kPa	1334.5	–
283.15 K, 1997 kPa	1336.8	–
283.15 K, 2500 kPa	1339.1	–
283.15 K, 5000 kPa	1350.2	–
283.15 K, 7499 kPa	1360.3	–
283.15 K, 9998 kPa	1369.8	–
283.15 K, 15001 kPa	1387	–
283.15 K, 17501 kPa	1395	–
283.15 K, 20001 kPa	1402.5	–
283.15 K, 22497 kPa	1409.9	–
283.15 K, 25000 kPa	1417	–
283.16 K, 147.3 kPa	–	0.116
283.16 K, 27503 kPa	1423.9	–
283.16 K, 29999 kPa	1430.3	–
283.16 K, 32498 kPa	1436.2	–
283.16 K, 35004 kPa	1442.4	–
287.91 K, 307.5 kPa	–	0.054
288.15 K, 150.2 kPa	–	0.116
288.15 K, 215.6 kPa	–	0.079
292.78 K, 314.1 kPa	–	0.054
293.15 K, 152.7 kPa	–	0.116
293.15 K, 220 kPa	–	0.079
293.15 K, 470 kPa	1293.2	–
293.15 K, 598 kPa	1293.9	–
293.15 K, 1000 kPa	1296.2	–
293.15 K, 1500 kPa	1299.1	–
293.15 K, 2000 kPa	1301.9	–
293.15 K, 2500 kPa	1304.6	–
293.15 K, 5000 kPa	1317.4	–
293.15 K, 7500 kPa	1329	–
293.15 K, 10001 kPa	1339.8	–
293.15 K, 12500 kPa	1349.7	–
293.15 K, 14999 kPa	1359	–
293.15 K, 17500 kPa	1367.8	–
293.15 K, 20000 kPa	1376	–
293.15 K, 22500 kPa	1383.9	–
293.15 K, 25000 kPa	1391.4	–
293.15 K, 27499 kPa	1398.5	–
293.15 K, 30000 kPa	1405.4	–
293.15 K, 32500 kPa	1412	–
293.15 K, 34999 kPa	1418.5	–
297.14 K, 418.9 kPa	–	0.04
298.15 K, 155.7 kPa	–	0.116
298.15 K, 224.3 kPa	–	0.079
298.15 K, 498.5 kPa	–	0.032
298.47 K, 320.7 kPa	–	0.054
303.14 K, 327 kPa	–	0.054
303.14 K, 510.2 kPa	–	0.032
303.15 K, 158.7 kPa	–	0.116
303.15 K, 228.2 kPa	–	0.079
303.15 K, 430 kPa	–	0.04
303.15 K, 700 kPa	1255.3	–
303.15 K, 1000 kPa	1257.4	–
303.15 K, 1500 kPa	1260.9	–
303.15 K, 2000 kPa	1264.3	–
303.15 K, 7500 kPa	1296.6	–
303.15 K, 9999 kPa	1308.8	–
303.15 K, 12500 kPa	1320.1	–
303.15 K, 20000 kPa	1349.2	–
303.15 K, 22501 kPa	1357.8	–
303.15 K, 24999 kPa	1366	–
303.15 K, 27500 kPa	1374.4	–
303.16 K, 2499 kPa	1267.8	–
303.16 K, 5000 kPa	1283.2	–
303.16 K, 14996 kPa	1330.5	–
303.16 K, 17500 kPa	1340.2	–
303.16 K, 30000 kPa	1381.8	–
303.16 K, 32500 kPa	1388.8	–
303.16 K, 35000 kPa	1395.6	–
308.12 K, 522.1 kPa	–	0.032
308.14 K, 161.7 kPa	–	0.116
308.14 K, 612.3 kPa	–	0.027
308.15 K, 232.8 kPa	–	0.079
308.15 K, 333.9 kPa	–	0.054
308.15 K, 439 kPa	–	0.04
312.86 K, 236.9 kPa	–	0.079
313.13 K, 533.4 kPa	–	0.032
313.14 K, 627 kPa	–	0.027
313.14 K, 7500 kPa	1262.1	–
313.14 K, 10000 kPa	1276.1	–
313.15 K, 164.2 kPa	–	0.116
313.15 K, 447.9 kPa	–	0.04
313.15 K, 1000 kPa	1216.2	–
313.15 K, 1500 kPa	1220.4	–
313.15 K, 2008 kPa	1224.6	–
313.15 K, 5000 kPa	1246.4	–
313.15 K, 12501 kPa	1288.9	–
313.15 K, 15000 kPa	1300.5	–
313.15 K, 17497 kPa	1311.3	–
313.15 K, 20000 kPa	1321.4	–
313.15 K, 22500 kPa	1330.8	–
313.15 K, 25000 kPa	1339.7	–
313.15 K, 27500 kPa	1348.1	–
313.15 K, 30001 kPa	1356.1	–
313.15 K, 32500 kPa	1363.7	–
313.15 K, 35000 kPa	1371	–
313.16 K, 340.4 kPa	–	0.054
313.16 K, 2501 kPa	1228.3	–
318.14 K, 346.9 kPa	–	0.054
318.14 K, 641.3 kPa	–	0.027
318.15 K, 166.8 kPa	–	0.116
318.15 K, 241.3 kPa	–	0.079
318.15 K, 457 kPa	–	0.04
318.23 K, 544.9 kPa	–	0.033
323.14 K, 353.4 kPa	–	0.054
323.14 K, 555.9 kPa	–	0.033
323.14 K, 655.2 kPa	–	0.027
323.15 K, 169.7 kPa	–	0.116
323.15 K, 245.6 kPa	–	0.079
323.15 K, 1296 kPa	1172.9	–
323.15 K, 7500 kPa	1226.8	–
323.15 K, 10001 kPa	1243.3	–
323.15 K, 12499 kPa	1257.6	–
323.15 K, 15000 kPa	1270.8	–
323.15 K, 17499 kPa	1282.9	–
323.15 K, 19999 kPa	1294	–
323.15 K, 22500 kPa	1304.4	–
323.15 K, 25001 kPa	1314.1	–
323.15 K, 27500 kPa	1323.2	–
323.15 K, 30001 kPa	1331.8	–
323.15 K, 32501 kPa	1340	–
323.15 K, 35001 kPa	1347.7	–
323.16 K, 466.1 kPa	–	0.04
323.16 K, 1499 kPa	1175.1	–
323.16 K, 2000 kPa	1180.3	–
323.16 K, 2502 kPa	1185.5	–
323.16 K, 4998 kPa	1207.9	–
328.07 K, 566.8 kPa	–	0.033
328.11 K, 360.1 kPa	–	0.054
328.14 K, 669.2 kPa	–	0.027
328.15 K, 172.6 kPa	–	0.116
328.15 K, 249.7 kPa	–	0.079
328.15 K, 475.1 kPa	–	0.04
333.1 K, 365.4 kPa	–	0.054
333.1 K, 578.2 kPa	–	0.033
333.13 K, 682.7 kPa	–	0.027
333.15 K, 174.9 kPa	–	0.116
333.15 K, 253.9 kPa	–	0.079
333.15 K, 483.9 kPa	–	0.04
333.15 K, 1502 kPa	1124.9	–
333.15 K, 1999 kPa	1132	–
333.15 K, 2500 kPa	1138.6	–
333.15 K, 5000 kPa	1166.8	–
333.15 K, 7500 kPa	1189.4	–
333.15 K, 10000 kPa	1208.6	–
333.15 K, 12500 kPa	1225.4	–
333.15 K, 15000 kPa	1240.4	–
333.15 K, 17500 kPa	1255	–
333.15 K, 20000 kPa	1266.6	–
333.15 K, 22500 kPa	1278.1	–
333.15 K, 25003 kPa	1288.8	–
333.15 K, 27500 kPa	1298.8	–
333.15 K, 29999 kPa	1308.2	–
333.15 K, 32500 kPa	1317.8	–
333.15 K, 35000 kPa	1326.3	–
338.08 K, 589.4 kPa	–	0.033
338.08 K, 696.3 kPa	–	0.027
338.14 K, 371.5 kPa	–	0.054
338.15 K, 177.9 kPa	–	0.116
338.15 K, 257.7 kPa	–	0.079
338.15 K, 492.8 kPa	–	0.04
343.08 K, 600.4 kPa	–	0.033
343.09 K, 377.8 kPa	–	0.054
343.13 K, 710 kPa	–	0.027
343.15 K, 181 kPa	–	0.116
343.15 K, 262.4 kPa	–	0.079
343.15 K, 501.5 kPa	–	0.04
343.15 K, 1800 kPa	1070	–
343.15 K, 2000 kPa	1074.1	–
343.15 K, 2500 kPa	1083.8	–
343.15 K, 5001 kPa	1121.1	–
343.15 K, 7500 kPa	1149.2	–
343.15 K, 10001 kPa	1172	–
343.15 K, 12500 kPa	1191.5	–
343.15 K, 15000 kPa	1208.5	–
343.15 K, 17500 kPa	1223.8	–
343.15 K, 20000 kPa	1237.6	–
343.15 K, 22500 kPa	1250.3	–
343.15 K, 27500 kPa	1273.2	–
343.15 K, 30000 kPa	1283.5	–
343.15 K, 32500 kPa	1293.3	–
343.15 K, 35000 kPa	1302.5	–
343.16 K, 25000 kPa	1262.3	–
348.06 K, 611.4 kPa	–	0.033
348.07 K, 383.7 kPa	–	0.054
348.14 K, 723.7 kPa	–	0.027
348.15 K, 183.8 kPa	–	0.116
348.15 K, 266.6 kPa	–	0.079
348.15 K, 510.2 kPa	–	0.04
353.05 K, 390.1 kPa	–	0.054
353.11 K, 622.8 kPa	–	0.033
353.13 K, 737.3 kPa	–	0.027
353.14 K, 20000 kPa	1209	–
353.15 K, 186.6 kPa	–	0.116
353.15 K, 270.7 kPa	–	0.079
353.15 K, 518.9 kPa	–	0.04
353.15 K, 5000 kPa	1070.7	–
353.15 K, 7500 kPa	1106.5	–
353.15 K, 10000 kPa	1134	–
353.15 K, 12500 kPa	1156.8	–
353.15 K, 15000 kPa	1176.3	–
353.15 K, 17500 kPa	1193.5	–
353.15 K, 22500 kPa	1223	–
353.15 K, 25000 kPa	1235.9	–
353.15 K, 27500 kPa	1247.9	–
353.15 K, 30000 kPa	1259	–
353.15 K, 32502 kPa	1269.4	–
353.16 K, 2500 kPa	1016.9	–
353.16 K, 35001 kPa	1279.2	–
358.11 K, 397.3 kPa	–	0.054
358.15 K, 189.5 kPa	–	0.116
358.15 K, 274.5 kPa	–	0.079
358.15 K, 527.6 kPa	–	0.04
358.15 K, 750.7 kPa	–	0.027
358.17 K, 633.7 kPa	–	0.033
363.13 K, 764 kPa	–	0.027
363.14 K, 278.7 kPa	–	0.079
363.14 K, 644.4 kPa	–	0.033
363.16 K, 192.3 kPa	–	0.116
363.16 K, 536.1 kPa	–	0.04
363.29 K, 404 kPa	–	0.054
368.03 K, 409.8 kPa	–	0.054
368.1 K, 777.4 kPa	–	0.027
368.15 K, 194.3 kPa	–	0.116
368.15 K, 544.7 kPa	–	0.04
368.16 K, 282.9 kPa	–	0.079
368.16 K, 655.3 kPa	–	0.033
